Publication doi:10.1101/2022.02.21.481260v1 (biorxiv, 2022)

Target: T1, hFAP (recombinant human Fibroblast Activation Protein) (Homo sapiens, UniProt Q12884)
T1 sequence (Q12884 26-760 limits assumed): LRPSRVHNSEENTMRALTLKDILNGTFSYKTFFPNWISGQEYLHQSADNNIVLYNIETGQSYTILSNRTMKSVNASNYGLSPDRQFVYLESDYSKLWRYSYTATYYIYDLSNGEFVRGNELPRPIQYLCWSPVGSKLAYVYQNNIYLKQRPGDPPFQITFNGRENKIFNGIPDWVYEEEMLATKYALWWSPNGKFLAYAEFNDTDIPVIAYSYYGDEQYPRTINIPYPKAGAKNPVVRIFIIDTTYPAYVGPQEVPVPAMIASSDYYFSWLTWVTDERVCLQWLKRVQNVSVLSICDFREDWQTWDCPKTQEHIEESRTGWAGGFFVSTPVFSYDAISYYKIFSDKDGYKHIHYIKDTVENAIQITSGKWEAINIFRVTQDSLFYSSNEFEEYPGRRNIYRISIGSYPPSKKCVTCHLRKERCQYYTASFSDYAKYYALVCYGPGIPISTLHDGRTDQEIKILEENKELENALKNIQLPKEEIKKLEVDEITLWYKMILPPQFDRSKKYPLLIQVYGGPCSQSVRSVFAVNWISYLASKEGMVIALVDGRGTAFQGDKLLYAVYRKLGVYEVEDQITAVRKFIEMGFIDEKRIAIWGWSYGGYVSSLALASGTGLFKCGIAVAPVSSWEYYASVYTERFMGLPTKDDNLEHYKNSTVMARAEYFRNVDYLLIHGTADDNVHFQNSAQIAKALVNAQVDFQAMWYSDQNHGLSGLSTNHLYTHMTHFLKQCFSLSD
Assay: biochemical

N#C[C@@H]1CC(F)(F)CN1C(=O)CNC(=O)c1ccnc2c(NC(=O)CCC(=O)NCCNC(=O)CCC(C(=O)O)N3CCN(CC(=O)O)CCN(CC(=O)O)CCN(CC(=O)O)CC3)cccc12 (stereo partly shown) [compound 1, OncoFAP-DOTAGA]
IC50: 0.399 nM
